Assay [1] has as its system formalin-induced nociceptive behavior in mice. Nature of the assay: Formalin-induced persistent nociceptive behavior assay. It counts as in vivo. To be noted: 20-45 minutes post formalin injection, 10 mg/kg subcutaneously 10 minutes prior to formalin, versus vehicle. The protocol:
FIG. 3 is a graphical representation of nocifensive response (licking duration) following treatment with vehicle or a PAM (Example 6) followed by exposure to formalin in mice. […] In Phase II (20-45 minutes post formalin injection) a significant reduction (55%) in licking behavior was observed, indicative of pain relief in this time period.
(iv) Formalin-Induced Persistent Nociceptive Behavior Assay
Nociception was assessed using the formalin test. The mice were placed in open plexiglass observation chambers for 30 minutes to allow them to acclimate to their surroundings; then they were removed for formalin administration. Mice were gently restrained while the dorsum of the hind paw was injected with 20 μL of 2.5% formalin into the plantar surface of the right hind paw with a 30-gauge needle. The animals were returned to the chambers and nociceptive behavior was observed immediately after formalin injection. Mirrors were placed in each chamber to enable unhindered observation. Nociceptive behavior was quantified as the time licking the injected paw for continuous 5 minutes (phase I) and 20-45 minutes (phase II), following formalin injection. Formalin-induced flinching/licking behavior was biphasic. The initial acute phase (phase I, 0-5 minutes) was followed by a relatively short quiescent period, which was then followed by a prolonged tonic response (phase II, 20-45 minutes).

In assay [2] the target is T1, human α7 NNR (Homo sapiens, UniProt P36544).
T1 construct: expressed in transfected cells; host or cells: Xenopus laevis oocytes injected with cRNA
Nature of the assay: Two-electrode voltage-clamp in Xenopus laevis oocytes, potentiation of ACh-evoked α7 currents. It counts as cell-based. To be noted: for degree of potentiation: 0.1 mM ACh-evoked α7 currents, normalized to reference PAM at 10 μM taken as 100%, submaximum ACh without PAM as 0%; for EC50: potentiating 0.1 mM ACh-evoked α7 currents in oocytes. The protocol: FIG. 2 is a concentration response curve obtained in the same manner for a PAM (Example 10). […] Normalized PAM potentiation is plotted on the Y-axis as a function of the concentration of the test modulator (depicted along the X-axis).
(i) Two-Electrode Voltage-Clamp in Xenopus laevis Oocytes
X. laevis oocytes were prepared for electrophysiological experiments as described in the literature (see for example, Briggs. C. A., et al., Neutropharmacology, 1995, 34: 583-590; Briggs, C. A. et al., Neutropharmacology, 1998, 37: 1095-1102). In brief, three to four lobes from ovaries of female adult X. laevis frogs were removed and defolliculated after treatment with collagenase type IA (2 mg/mL; Sigma) prepared in low-Ca^2+ Barth's solution (90 mM NaCl, 1.0 mM KCl, 0.66 mM NaNO3, 2.4 mM NaHCO3, 10 mM H-IEPES, 2.5 mM sodium pyruvate, 0.82 mM MgCl2, and 0.5% (v/v) penicillin-streptomycin solution, pH=7.55, Sigma) for about 1.5 hours to about 2 hours at about 18° C. under constant agitation to obtain isolated oocytes. The oocytes were injected with about 4 ng to about 6 ng of human α7 NNR cRNA, kept at about 18° C. in a humidified incubator in modified Barth's solution (90 mM NaCl, 1.0 mM KCl, 0.66 mM NaNO3, 2.4 mM NaHCO3, 10 mM HEPES, 2.5 mM sodium pyruvate, 0.74 mM CaCl2, 0.82 mM MgCl2, 0.5% (v/v) penicillin-streptomycin solution, pH 7.55) and used about 2 to 7 days after injection. Responses were measured by two-electrode voltage clamp using a parallel oocyte electrophysiology test station (Abbott, Abbott Park, Ill.) (see for example, Trimbull, J. D., Maslana, E. S., McKenna, D. G., Nemcek, T. A., Niforatos, W., Pan, J. Y., Parihar, A. S., Shieh, C. C., Wilkins, J. A., Briggs, C. A., and Bertrand, D. High throughput electrophysiology using a fully automated, multiplexed recording system, Receptors Channels, 2003, 9: 19-28). During recordings, the oocytes were bathed in Ba^2+—OR2 solution (90 mM NaCl, 2.5 mM KCl, 2.5 mM BaCl2, 1.0 mM MgCl2, 5.0 mM HEPES, and 0.0005 mM atropine, pH 7.4) to prevent activation of Ca^2+-dependent currents and held at −60 mV at room temperature (about 20° C.). Test compounds were given for ˜60 seconds before agonist application and subsequently in the presence of 0.1 mM ACh.

The target in assay [3] is α7 NNRs (Homo sapiens, UniProt P36544). To be noted: IMR-32 cells.
Description: (ii) High-Throughput Calcium Flux Assays Using Cells Expressing Endogenous α7 NNRs
As such, PAMs and nicotinic acetylcholine receptor agonists can be identified by using IMR-32 cells that endogenously express various nicotinic receptors including α7 NNRs. […] Accordingly, allosteric modulator compounds described herein can be identified using a fluorescence-based throughput functional assay using cell lines such as IMR-32 neuroblastoma or primary dissociated neurons. […] Any suitable selective α7 agonist can be used.
IMR-32 neuroblastoma cells (ATCC) were grown to confluency in 162 cm^2 tissue culture flasks in minimum essential media supplemented with 10% FBS and 1 mM sodium pyruvate, 0.1 mM non-essential amino acids and 1% antibiotic-antimycotic. […] Calcium flux was measured using a calcium-3 assay kit (Molecular Devices, Sunnyvale, Calif.) or fluo-4. […] Fluorescence measurements were read simultaneously from all the wells by a Fluorometric Imaging Plate Reader (FLIPR) at an excitation wavelength of 480 nm and an emission wavelength of 520 nm. Baseline fluorescence was measured for the first 10 seconds at which 50 μL of 3× concentrations of modulator/test compounds were added to the cell plate and incubated for three to five minutes. The fluorescence intensity was captured every second for the first 1 minute followed by every 2-5 seconds for an additional two to four minutes. […]

The structures appear in SMILES notation.

T1 sequence (P36544 23-502): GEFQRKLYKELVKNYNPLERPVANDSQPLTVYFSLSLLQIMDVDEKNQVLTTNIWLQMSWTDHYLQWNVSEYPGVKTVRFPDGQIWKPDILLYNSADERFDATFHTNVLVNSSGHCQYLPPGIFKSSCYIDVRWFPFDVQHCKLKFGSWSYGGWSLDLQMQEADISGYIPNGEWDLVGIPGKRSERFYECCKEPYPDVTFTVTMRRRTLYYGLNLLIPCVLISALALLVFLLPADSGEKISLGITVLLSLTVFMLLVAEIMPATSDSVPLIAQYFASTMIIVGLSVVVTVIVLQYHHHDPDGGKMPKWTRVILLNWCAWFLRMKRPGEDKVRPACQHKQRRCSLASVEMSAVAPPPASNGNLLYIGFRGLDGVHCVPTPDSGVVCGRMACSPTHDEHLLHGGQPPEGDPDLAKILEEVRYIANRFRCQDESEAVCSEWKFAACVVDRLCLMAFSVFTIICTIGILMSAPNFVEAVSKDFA
α7 NNRs, sequence (P36544 23-502): as above

On to `O=C(NCc1ccc2[nH]ccc2c1)c1ccc(OCC(F)(F)F)nc1` [Example 6, N-(1H-indol-5-ylmethyl)-6-(2,2,2-trifluoroethoxy)nicotinamide], for which, in assay [1], the “reduction in licking behavior, Phase II” value worked out at 55%.

In the case of `Cn1ccc2cc(CNC(=O)c3ccc(SC(F)(F)F)cc3)ccc21` [Example 10, N-[(1-methyl-1H-indol-5-yl)methyl]-4-[(trifluoromethyl)thio]benzamide], in assay [2], the degree of potentiation is given as 91% and the EC50 worked out at 210 nM.

Consider `Cn1ccc2ccc(CNC(=O)c3ccc(SC(F)(F)F)cc3)cc21` [Example 12, N-[(1-methyl-1H-indol-6-yl)methyl]-4-[(trifluoromethyl)thio]benzamide], for which, in assay [2], the degree of potentiation is 99% and the EC50 was 1100 nM.

For `CCN1C[C@]2(COC(=O)c3ccccc3N3C(=O)C[C@H](C)C3=O)CC[C@H](OC)[C@@]34[C@@H]5C[C@H]6[C@H](OC)[C@@H]5[C@](O)(C[C@@H]6OC)[C@@](O)([C@@H](OC)[C@H]23)[C@@H]14` [methyllycaconitine], the “effect on calcium response elicited by agonist in the presence of allosteric modulator” value in assay [3] was “abolished the response”.

(Values after patent US8536221B2, “Amide derivatives as positive allosteric modulators and methods of use thereof” (AbbVie Inc., priority 2008, dated 2013).)
